In PMC10840383, “Clinical features, functional consequences, and rescue pharmacology of missense GRID1 and GRID2 human variants” (Human Molecular Genetics, 2023):
Substitutions are numbered along the chain they refer to. “Also recorded” adds a separate entry of the source. Read-outs that look alike come from different tables or passages of the source.

Columns and labels:
Assay type in all cases: cell-based
[1] = biological target: T1, GluD2-A654T (Rattus norvegicus, UniProt Q63226, A654T); experiment: TEVC of constitutive current, Xenopus oocytes expressing GluD2-A654T (lurcher)
T1 construct: expressed in transfected cells; host or cells: Xenopus laevis oocytes injected with cRNA
T1 sequence (Q63226 24-1007 A654T): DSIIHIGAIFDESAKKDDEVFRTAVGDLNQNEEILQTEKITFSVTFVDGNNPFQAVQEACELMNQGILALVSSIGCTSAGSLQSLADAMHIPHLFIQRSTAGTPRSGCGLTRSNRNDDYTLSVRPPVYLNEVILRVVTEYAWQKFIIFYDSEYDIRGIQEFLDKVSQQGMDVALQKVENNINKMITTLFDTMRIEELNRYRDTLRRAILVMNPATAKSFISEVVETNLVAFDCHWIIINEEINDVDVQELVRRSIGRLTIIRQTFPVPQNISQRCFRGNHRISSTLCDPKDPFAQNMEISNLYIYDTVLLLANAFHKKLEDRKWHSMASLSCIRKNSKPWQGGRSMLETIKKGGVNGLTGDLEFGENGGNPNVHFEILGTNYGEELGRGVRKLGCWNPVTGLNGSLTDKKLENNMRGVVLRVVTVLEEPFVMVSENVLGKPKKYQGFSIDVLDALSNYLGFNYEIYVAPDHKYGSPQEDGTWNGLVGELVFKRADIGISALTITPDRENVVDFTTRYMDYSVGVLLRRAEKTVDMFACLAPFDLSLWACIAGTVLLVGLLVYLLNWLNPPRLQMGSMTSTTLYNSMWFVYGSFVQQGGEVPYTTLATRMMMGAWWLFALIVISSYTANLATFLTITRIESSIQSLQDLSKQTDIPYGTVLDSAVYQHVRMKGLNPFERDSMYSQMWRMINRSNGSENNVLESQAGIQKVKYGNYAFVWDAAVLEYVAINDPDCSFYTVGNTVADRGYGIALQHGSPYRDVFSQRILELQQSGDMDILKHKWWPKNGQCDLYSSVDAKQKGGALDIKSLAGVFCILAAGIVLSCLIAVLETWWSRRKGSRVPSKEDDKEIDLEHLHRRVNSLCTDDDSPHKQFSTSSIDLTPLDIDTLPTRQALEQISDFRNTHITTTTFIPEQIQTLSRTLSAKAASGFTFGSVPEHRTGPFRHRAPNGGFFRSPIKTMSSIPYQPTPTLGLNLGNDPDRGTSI

[2] = biological target: T2, GluD1-A650T (Homo sapiens, UniProt Q9ULK0, A650T); experiment: TEVC of constitutive current, Xenopus oocytes expressing GluD1-A650T; conditions: for EC50: modulation of constitutive current
T2 construct: expressed in transfected cells; host or cells: Xenopus laevis oocytes injected with cRNA
T2 sequence (Q9ULK0 21-1009 A650T): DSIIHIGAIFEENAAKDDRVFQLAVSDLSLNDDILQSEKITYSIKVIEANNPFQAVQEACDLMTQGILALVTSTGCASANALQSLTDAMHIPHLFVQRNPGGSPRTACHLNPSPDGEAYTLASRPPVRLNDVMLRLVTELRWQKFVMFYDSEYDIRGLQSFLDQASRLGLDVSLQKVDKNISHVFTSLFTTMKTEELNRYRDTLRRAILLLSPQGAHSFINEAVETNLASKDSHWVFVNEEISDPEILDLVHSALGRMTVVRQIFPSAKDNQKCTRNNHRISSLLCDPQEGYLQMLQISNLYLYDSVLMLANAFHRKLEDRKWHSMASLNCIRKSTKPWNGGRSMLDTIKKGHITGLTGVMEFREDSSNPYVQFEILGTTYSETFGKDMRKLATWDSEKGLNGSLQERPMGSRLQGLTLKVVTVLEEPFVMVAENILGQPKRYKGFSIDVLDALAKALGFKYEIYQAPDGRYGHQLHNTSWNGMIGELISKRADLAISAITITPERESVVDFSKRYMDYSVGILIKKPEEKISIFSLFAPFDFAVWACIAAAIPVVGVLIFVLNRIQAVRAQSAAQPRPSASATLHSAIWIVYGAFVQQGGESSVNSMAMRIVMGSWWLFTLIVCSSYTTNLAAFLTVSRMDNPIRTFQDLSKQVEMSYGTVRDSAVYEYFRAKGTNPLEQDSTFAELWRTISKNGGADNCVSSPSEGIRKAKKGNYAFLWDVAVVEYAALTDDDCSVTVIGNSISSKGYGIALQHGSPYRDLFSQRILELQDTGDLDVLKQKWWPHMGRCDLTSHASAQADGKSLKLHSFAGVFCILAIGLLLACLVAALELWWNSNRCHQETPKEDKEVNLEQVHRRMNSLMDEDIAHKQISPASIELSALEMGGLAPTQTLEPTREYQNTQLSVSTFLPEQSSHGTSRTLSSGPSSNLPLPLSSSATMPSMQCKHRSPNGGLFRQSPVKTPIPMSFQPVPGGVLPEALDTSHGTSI

[3] = biological target: T3, GluD2-A654D (Rattus norvegicus, UniProt Q63226, A654D); experiment: TEVC of constitutive current, Xenopus oocytes expressing GluD2-A654D
T3 construct: expressed in transfected cells; host or cells: Xenopus laevis oocytes injected with cRNA
T3 sequence (Q63226 24-1007 A654D): T1 sequence (Q63226 24-1007 A654T) with T631D

[4] = normalized to NMDG+ − Na+ difference current
[5] = inhibition of constitutive current, read-out: Memantine IC50
[6] = 10 mM D-serine, positive = increase, negative = decrease of activity
[7] = percent of constitutive leak current (NMDG+/Na+ difference current)
[8] = 100 μM pentamidine, positive = increase, negative = decrease of activity

Compound: [Ca+2] [Ca^2+]
- Ca2+ EC50 of the relation Ca2+ concentration vs D-serine IC50 ([1]; Hill fit, Fig. S7A): 590 µM
- Hill slope of the relation Ca2+ concentration vs D-serine IC50 ([1]; Hill fit, Fig. S7A): 1.1
- Ca2+ % Max (NMDG+ − Na+) Mean ± SEM [1, 4]: 299 ± 5.8 (32) %
- EC50 ([1]; potentiation of constitutive current, read-out: Ca2+ EC50 [95% CI]): 150 µM
- Ca2+ EC50 A654T/EC50 variant ([1]; ratio): 1.0
- Effect on constitutive current, in words [2]: modestly inhibited
- EC50 ([2]; inhibited by Ca2+ (not potentiated), read-out: Ca2+ EC50 [95% CI]): 290 µM
- Ca2+ % Max (NMDG+ − Na+) Mean ± SEM [2, 4]: 65 ± 3 (10) %
- Effect on constitutive current, in words [3]: weak inhibitor; also recorded: modestly inhibited
- EC50 ([3]; modulation of constitutive current, inhibited by Ca2+ (not potentiated), read-out: Ca2+ EC50 [95% CI]): 170 µM
- Ca2+ % Max (NMDG+ − Na+) Mean ± SEM [3, 4]: 82 ± 10 (12) %
- Ca2+ EC50 A654T/EC50 variant ([3]; ratio): 0.88

Compound: CC12CC3CC(C)(C1)CC(N)(C3)C2 [Memantine, memantine]
- IC50 [1, 5]: 89 µM
- IC50 [2, 5]: > 300 µM
- IC50 [3, 5]: 55 µM

Compound: N[C@H](CO)C(=O)O [D-serine]
- D-serine Hill slope ([1]; 1 mM Ca2+, Fig. S7B): 2.5
- D-serine Maximum ([1]; 1 mM Ca2+, Fig. S7B): 73%
- Reduction of maximum possible activity (Na+ −NMDG+ difference current) by D-serine ([1]; 10 mM D-serine): ~ 50%
- D-Serine effect (Baseline −10 mM D-Serine) [1, 6]: −1000 ± 130 (14) nA
- D-serine % Max (NMDG+ − Na+) Mean ± SEM [1, 7]: 51 ± 1.3 (32) %
- Effect on constitutive current, in words [2]: modestly potentiated; also recorded: slightly potentiated
- D-Serine effect (Baseline −10 mM D-Serine) [2, 6]: 810 ± 130 (12) nA
- D-serine % Max (NMDG+ − Na+) Mean ± SEM [2, 7]: 120 ± 1.8 (11) %
- EC50 ([2]; read-out: D-serine EC50 [95% CI], potentiated by D-serine (not inhibited)): 130 µM
- Effect on constitutive current, in words [3]: little effect; also recorded: near complete loss of D-serine potency
- D-Serine effect (Baseline −10 mM D-Serine) [3, 6]: −29 ± 10 (14) nA
- D-serine % Max (NMDG+ − Na+) Mean ± SEM [3, 7]: 85 ± 2.6 (15) %

Compound: N=C(N)c1ccc(OCCCCCOc2ccc(C(=N)N)cc2)cc1 [Pentamidine, pentamidine]
- Pentamidine effect (Baseline −100 μM Pentamidine) [1, 8]: −930 ± 130 (14) nA
- IC50 ([1]; read-out: Pentamidine IC50): 9.6 µM
- Pentamidine effect (Baseline −100 μM Pentamidine) [2, 8]: −1090 ± 200 (12) nA
- IC50 ([2]; read-out: Pentamidine IC50): 20 µM
- Pentamidine effect (Baseline −100 μM Pentamidine) [3, 8]: −700 ± 160 (14) nA
- IC50 ([3]; read-out: Pentamidine IC50): 3.7 µM
